In US20240306670A1, “BERBERINE ALKALOIDS IN THE PREVENTION AND/OR TREATMENT OF INTESTINAL DISEASE” (priority 2017, published 2024):
Values joined by “and” are separate entries in the source; they are usually repeats but may differ in a detail not shown here. Equal values may be shown once.

System: Eimeria species (mainly E. acervulina)
Conditions: in vivo

COc1ccc2cc3[n+](cc2c1OC)CCc1cc2c(cc1-3)OCO2 [IRP001 chloride, berberine chloride]
FCR 0-14 corrected for mortality: 1.120 and 1.125 and 1.103
FCR 0-21 corrected for mortality: 1.285 and 1.256 and 1.250
FCR 0-28 corrected for mortality: 1.470 and 1.467 and 1.486
Feed per bird over days 0-14: 485^B g/bird and 513^A g/bird and 512^A g/bird
Feed per bird over days 0-21: 1186^B g/bird and 1227^AB g/bird and 1240^AB g/bird
Feed per bird over days 0-28: 1957 g/bird and 2037 g/bird and 2049 g/bird
Feed per bird over days 0-42: 4121 g/bird and 4247 g/bird and 4305 g/bird
Mean Weight Gain over days 0-7: 113 gm and 121 gm and 119 gm
Mean Weight Gain over days 8-14: 320^C gm and 334^A gm and 343^A gm
Mean Weight Gain over days 15-21: 491^B gm and 517^A gm and 528^A gm
Mean Weight Gain over days 22-28: 593 gm and 618 gm and 600 gm
Mean Weight Gain over days 29-42: 1324 gm and 1341 gm and 1436 gm
Mean live weight at 0 days: 41 gm
Mean live weight at 7 days: 154 gm and 163 gm and 160 gm
Mean live weight at 14 days: 432^B gm and 456^A gm and 461^A gm
Mean live weight at 21 days: 973^C gm and 972^AB gm and 989^A gm
Mean live weight at 28 days: 1517^B gm and 1590^A gm
Mean live weight at 42 days: 2840^B gm and 2932^A gm and 3026^A gm
appearance of bird health: always appeared healthy
droppings: moist yellow-ish droppings
early growth rate: significantly lower than all other groups
growth rate: statistically similar to the control group
lesion scores in duodenum, jejunum and total gut: highest lesion scores
reduction of coccidial lesions: not by the lower dose rates
total intestinal health scores (Tierlynck et al.): approached significance
translucency score upper intestine and undigested feed particles in rectum: reduced translucency score in the upper intestine and the presence of undigested feed particles in the rectum
